Experimental data taken from patent publication US8609727B2, “Dicarboxylic acid derivatives and their use” (Bayer Intellectual Property GmbH, priority 2005, dated 2013).
Values belong to the compound of their own block, whether it stands above or below them.

Columns and labels:
[1] = target: T1, Haem-free sGC (recombinant soluble guanylate cyclase) (Rattus norvegicus, UniProt P20595); assay: Stimulation of recombinant soluble guanylate cyclase (sGC) in vitro, haem-free enzyme; assay type: biochemical
T1 construct: made in house; host or cells: Sf9 insect cells (baculovirus)
T1 sequence (P20595 1-619): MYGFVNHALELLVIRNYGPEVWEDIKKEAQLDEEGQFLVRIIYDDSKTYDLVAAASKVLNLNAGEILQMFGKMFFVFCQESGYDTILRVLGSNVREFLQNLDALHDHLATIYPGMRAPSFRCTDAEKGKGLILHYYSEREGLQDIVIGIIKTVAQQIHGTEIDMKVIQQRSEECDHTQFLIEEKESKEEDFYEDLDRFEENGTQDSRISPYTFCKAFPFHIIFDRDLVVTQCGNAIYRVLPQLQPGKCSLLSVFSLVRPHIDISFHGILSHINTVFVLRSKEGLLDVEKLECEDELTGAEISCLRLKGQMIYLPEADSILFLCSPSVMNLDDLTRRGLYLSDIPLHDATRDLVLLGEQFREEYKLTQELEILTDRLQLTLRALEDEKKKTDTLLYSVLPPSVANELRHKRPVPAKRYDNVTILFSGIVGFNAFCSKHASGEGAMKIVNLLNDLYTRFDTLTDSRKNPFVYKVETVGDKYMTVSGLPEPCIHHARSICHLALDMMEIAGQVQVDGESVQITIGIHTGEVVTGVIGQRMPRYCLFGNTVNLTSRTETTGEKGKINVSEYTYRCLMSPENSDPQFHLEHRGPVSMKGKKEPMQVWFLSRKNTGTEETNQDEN
T1 sequence (P19686 1-690 partner): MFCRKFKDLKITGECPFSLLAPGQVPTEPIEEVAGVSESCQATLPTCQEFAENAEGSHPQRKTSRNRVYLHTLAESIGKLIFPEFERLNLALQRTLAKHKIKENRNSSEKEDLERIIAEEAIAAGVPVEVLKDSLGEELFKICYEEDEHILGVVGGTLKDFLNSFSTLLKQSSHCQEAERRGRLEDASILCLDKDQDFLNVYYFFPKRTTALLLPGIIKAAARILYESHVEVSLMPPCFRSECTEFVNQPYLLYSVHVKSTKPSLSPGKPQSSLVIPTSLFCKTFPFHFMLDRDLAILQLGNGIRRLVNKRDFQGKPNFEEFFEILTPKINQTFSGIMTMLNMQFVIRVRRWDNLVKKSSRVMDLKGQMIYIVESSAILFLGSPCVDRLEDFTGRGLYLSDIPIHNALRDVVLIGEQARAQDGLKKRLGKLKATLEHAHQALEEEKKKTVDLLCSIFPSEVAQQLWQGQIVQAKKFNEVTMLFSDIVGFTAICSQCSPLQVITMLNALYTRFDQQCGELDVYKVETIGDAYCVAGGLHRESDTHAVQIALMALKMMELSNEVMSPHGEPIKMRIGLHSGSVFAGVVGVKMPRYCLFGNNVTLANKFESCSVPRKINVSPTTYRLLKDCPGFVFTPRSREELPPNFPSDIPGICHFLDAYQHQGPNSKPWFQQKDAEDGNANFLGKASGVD
Procedure: (§1) B-2. Stimulation of Recombinant Soluble Guanylate Cyclase (sGC) In Vitro:
Investigations on the stimulation of recombinant soluble guanylate cyclase (sGC) by the compounds according to the invention with and without sodium nitroprusside, and with and without the haem-dependent sGC inhibitor 1H-1,2,4-oxadiazole-(4,3a)-quinoxalin-1-one (ODQ) are carried out by the method described in detail in the following reference: M. Hoenicka, E. M. Becker, H. Apeler, T. Sirichoke, H. Schroeder, R. Gerzer and J.-P. Stasch, “Purified soluble guanylyl cyclase expressed in a baculovirus/Sf9 system: Stimulation by YC-1, nitric oxide, and […]”, J. Mol. Med. 77 (1999), 14-23. The haem-free guanylate cyclase is obtained by adding Tween 20 to the sample buffer (0.5% in the final concentration).
(§2) The activation of sGC by a test substance is reported as n-fold stimulation of the basal activity.

[2] = target: T2, Haem-containing sGC (recombinant soluble guanylate cyclase) (Rattus norvegicus, UniProt P20595); assay: Stimulation of recombinant soluble guanylate cyclase (sGC) in vitro, haem-containing enzyme; assay type: biochemical
T2 construct: made in house; host or cells: Sf9 insect cells (baculovirus)
T2 sequence (P20595 1-619): T1 sequence (P20595 1-619)
T2 sequence (P19686 1-690 partner): T1 sequence (P19686 1-690 partner)
Excerpt: as §1
Hoenicka, E. M. Becker, H. Apeler, T. Sirichoke, H. Schroeder, R. Gerzer and J.-P. Stasch, “Purified soluble guanylyl cyclase expressed in a baculovirus/Sf9 system: Stimulation by YC-1, nitric oxide, and carbon oxide”, J. Mol. Med. 77 (1999), 14-23. The haem-free guanylate cyclase is obtained by adding Tween 20 to the sample buffer (0.5% in the final concentration).
as §2

[3] = test system: saphenous artery rings; assay: Vasorelaxant effect in vitro (phenylephrine-contracted artery rings); assay type: cell-based, Rabbits; conditions: rabbit saphenous artery rings, contraction induced by phenylephrine
Procedure: B-1. Vasorelaxant Effect In Vitro:
Rabbits are anaesthetized and sacrificed by intravenous injection of thiopental sodium (about 50 mg/kg) and exsanguinated. The saphenous artery is removed and divided into rings 3 mm wide. The rings are mounted singly on in each case a pair of triangular hooks open at the end and made of 0.3 mm-thick special wire (Remanium®). Each ring is placed under an initial tension in 5 ml organ baths with Krebs-Henseleit solution which is at 37° C., is gassed with 95% O2/5% CO2 and has the following composition: NaCl 119 mM; KCl 4.8 mM; CaCl2×2H2O 1 mM; MgSO4×7H2O 1.4 mM; KH2PO4 1.2 mM; NaHCO3 25 mM; glucose 10 mM; bovine serum albumin 0.001%. The force of contraction is detected with Statham UC2 cells, amplified and digitized via A/D converters (DAS-1802 HC, Keithley Instruments, Munich) and recorded in parallel on chart recorders. Contractions are induced by addition of phenylephrine.
After several (generally 4) control cycles, the substance to be investigated is added in each further run in increasing dosage, and the height of the contraction achieved under the influence of the test substance is compared with the height of the contraction reached in the last preceding run. The concentration necessary to reduce the contraction reached in the preceding control by 50% is calculated from this (IC50). The standard application volume is 5 μl. The proportion of DMSO in the bath solution corresponds to 0.1%.

[4] = test system: conscious SH rats; assay: Radiotelemetric measurement of blood pressure and heart rate on conscious SH rats; assay type: in vivo, spontaneously hypertensive rats (SH rats); conditions: oral administration of 0.3 mg/kg
Excerpt: B-3. Radiotelemetric Measurement of Blood Pressure and Heart Rate on Conscious SH Rats
A commercially available telemetry system from Data Sciences International DSI, USA, is employed for the measurements on conscious SH rats described below.
The system consists of 3 main components: (1) implantable transmitter, (2) receiver which is linked via a multiplexer to a (3) data acquisition computer. The telemetry system makes it possible to record continuously the blood pressure and heart rate on conscious animals in their usual habitat.
The investigations are carried out on adult female spontaneously hypertensive rats (SH rats) with a body weight of >200 g. After transmitter implantation, the experimental animals are housed singly in type 3 Makrolon cages. They have free access to standard feed and water. […]
The telemetry measuring unit is configured for 24 animals. Each experiment is recorded under an experiment number.
Each of the instrumented rats living in the system is assigned a separate receiving antenna (1010 Receiver, DSI). […] The emitted signals can be detected online by a data acquisition system (Dataquest™ A.R.T. for Windows, DSI) and be appropriately processed. […]
In the standard procedure, the following are measured for 10-second periods in each case: (1) systolic blood pressure (SBP), (2) diastolic blood pressure (DBP), (3) mean arterial pressure (MAP) and (4) heart rate (HR). […]

Stimulation (n-fold) Haem-free sGC Basal ([1]; 0.001 μM Example 5): 19.2 n-fold
Stimulation (n-fold) Haem-free sGC +10 μM ODQ ([1]; 0.001 μM Example 5 +10 μM ODQ): 18.4 n-fold
Stimulation (n-fold) Haem-free sGC Basal ([1]; 0.01 μM Example 5): 105.8 n-fold
Stimulation (n-fold) Haem-free sGC +10 μM ODQ ([1]; 0.01 μM Example 5 +10 μM ODQ): 100.5 n-fold
Stimulation (n-fold) Haem-free sGC Basal ([1]; 0.1 μM Example 5): 185.3 n-fold
Stimulation (n-fold) Haem-free sGC +10 μM ODQ ([1]; 0.1 μM Example 5 +10 μM ODQ): 170.4 n-fold
Stimulation (n-fold) Haem-free sGC Basal ([1]; 1 μM Example 5): 201.2 n-fold
Stimulation (n-fold) Haem-free sGC +10 μM ODQ ([1]; 1 μM Example 5 +10 μM ODQ): 189.2 n-fold
Stimulation (n-fold) Haem-free sGC Basal ([1]; 10 μM Example 5): 203.1 n-fold
Stimulation (n-fold) Haem-free sGC +10 μM ODQ ([1]; 10 μM Example 5 +10 μM ODQ): 180.7 n-fold
Stimulation (n-fold) Haem-containing sGC Basal ([2]; 0.001 μM Example 5): 3.5 n-fold
Stimulation (n-fold) Haem-containing sGC +0.1 μM DEA/NO ([2]; 0.001 μM Example 5 +0.1 μM DEA/NO): 88.3 n-fold
Stimulation (n-fold) Haem-containing sGC +10 μM ODQ ([2]; 0.001 μM Example 5 +10 μM ODQ): 40.3 n-fold
Stimulation (n-fold) Haem-containing sGC Basal ([2]; 0.01 μM Example 5): 17.2 n-fold
Stimulation (n-fold) Haem-containing sGC +0.1 μM DEA/NO ([2]; 0.01 μM Example 5 +0.1 μM DEA/NO): 102.9 n-fold
Stimulation (n-fold) Haem-containing sGC +10 μM ODQ ([2]; 0.01 μM Example 5 +10 μM ODQ): 83.0 n-fold
Stimulation (n-fold) Haem-containing sGC Basal ([2]; 0.1 μM Example 5): 35.1 n-fold
Stimulation (n-fold) Haem-containing sGC +0.1 μM DEA/NO ([2]; 0.1 μM Example 5 +0.1 μM DEA/NO): 123.1 n-fold
Stimulation (n-fold) Haem-containing sGC +10 μM ODQ ([2]; 0.1 μM Example 5 +10 μM ODQ): 149.5 n-fold
Stimulation (n-fold) Haem-containing sGC Basal ([2]; 1 μM Example 5): 44.2 n-fold
Stimulation (n-fold) Haem-containing sGC +0.1 μM DEA/NO ([2]; 1 μM Example 5 +0.1 μM DEA/NO): 124.1 n-fold
Stimulation (n-fold) Haem-containing sGC +10 μM ODQ ([2]; 1 μM Example 5 +10 μM ODQ): 162.1 n-fold
Stimulation (n-fold) Haem-containing sGC Basal ([2]; 10 μM Example 5): 59.5 n-fold
Stimulation (n-fold) Haem-containing sGC +0.1 μM DEA/NO ([2]; 10 μM Example 5 +0.1 μM DEA/NO): 152.0 n-fold
Stimulation (n-fold) Haem-containing sGC +10 μM ODQ ([2]; 10 μM Example 5 +10 μM ODQ): 171.2 n-fold
Synergy of combination with NO donor DEA/NO on sGC stimulation ([2]; combination with DEA/NO): no synergistic effect
IC50 [3]: 4.9 nM
Compound: O=C(O)c1ccc(CCC(/C=C/c2ccccc2OCCCCCc2ccccc2)Cc2ccc(C(=O)O)cc2)cc1 (racemic) [Example 5, 4-((4E)-3-(4-Carboxybenzyl)-5-{2-[(5-phenylpentyl)oxy]phenyl}pent-4-en-1-yl)benzoic Acid]

IC50 ([3]; Oryctolagus cuniculus): 0.7 nM
Compound: CCCCCCOc1ccccc1/C=C/C(CCc1ccc(C(=O)O)cc1)Cc1ccc(C(=O)O)cc1 (racemic) [Example 20, 4-{(4E)-3-(4-Carboxybenzyl)-5-[2-(hexyloxy)phenyl]pent-4-en-1-yl}benzoic Acid]
Period of blood pressure reduction [4]: 11 h
Reduction in blood pressure [4]: marked reduction in blood pressure
